Measurements reported in article doi:10.1101/2023.03.03.530471v2 (bioRxiv, 2023).

Experiments:
[1] = Solubility by visual inspection; type: physicochemical; details: 10 mM PBS, molar equivalent of 250 mg/mL
[2] = target: recombinant full length PICK1 (Rattus norvegicus, UniProt Q9EP80); assay: SEC of recombinant PICK1 incubated with mPD5; type: binding; details: PICK1 40 µM + mPD5 10 µM (4:1), Superdex200 Increase 10/300; PICK1 alone 10.9 mL
[3] = test system: naive mice; assay: Barnes maze, spatial learning and memory; type: in vivo, mouse

Chain of recombinant full length PICK1 (Q9EP80 whole entry): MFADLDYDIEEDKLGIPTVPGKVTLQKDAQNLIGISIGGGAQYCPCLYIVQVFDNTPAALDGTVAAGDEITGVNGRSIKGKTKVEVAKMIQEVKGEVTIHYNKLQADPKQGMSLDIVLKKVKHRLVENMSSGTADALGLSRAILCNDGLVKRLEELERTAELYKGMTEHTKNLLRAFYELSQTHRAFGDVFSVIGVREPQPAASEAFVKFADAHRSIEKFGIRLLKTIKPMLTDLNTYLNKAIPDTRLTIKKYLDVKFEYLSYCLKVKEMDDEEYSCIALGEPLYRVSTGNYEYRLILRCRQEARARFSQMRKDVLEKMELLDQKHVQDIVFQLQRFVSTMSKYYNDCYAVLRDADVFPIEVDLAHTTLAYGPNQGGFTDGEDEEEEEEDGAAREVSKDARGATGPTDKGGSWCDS

solubility in PBS [1]: ≥ 130 mM | peak elution volume of PICK1 in presence of mPD5 [2]: two peaks at 8 mL and 9 mL | total distance moved, probe test day five ([3]; s.c. 10 µmol/kg 60 min before maze): no difference | total distance moved, following reversal learning ([3]; s.c. 10 µmol/kg, probe test day nine): no difference was observed
SMILES: CCCCCCCCCCCCCC(=O)N(CCOCCOCCC(=O)N[C@@H](Cc1c[nH]cn1)C(=O)N[C@@H](Cc1c[nH]c2ccccc12)C(=O)N[C@@H](CC(C)C)C(=O)N[C@@H](CCCCN)C(=O)N[C@H](C(=O)O)C(C)C)CCOCCOCCC(=O)N[C@@H](Cc1c[nH]cn1)C(=O)N[C@@H](Cc1c[nH]c2ccccc12)C(=O)N[C@@H](CC(C)C)C(=O)N[C@@H](CCCCN)C(=O)N[C@H](C(=O)O)C(C)C [mPD5, myristoyl-NPEG4-(HWLKV)2]
